This note sets out measurements from patent US20230081426A1, “COMPOUNDS AND METHODS FOR KRAS MODULATION AND INDICATIONS THEREFOR” (Plexxikon Inc., priority 2020, published 2023).

What is called IC50 is the midpoint of a concentration-inhibition curve.

Assay [1] addresses T1, G12D-mutant human KRAS (amino acid residues 1-188) (Homo sapiens, UniProt P01116, G12D).
T1 construct: G12D or G12C-mutant human KRAS (amino acid residues 1-188) with FLAG tag; made in house; host or cells: E. coli
The experiment in a line: KRAS Binding Disruption Assay (AlphaScreen; biotinylated KRpep-2d analogue or RAF1-RBD), G12D. To be noted: KRAS G12D; geometric mean; read-out: KRAS GMean IC50 (uM) MUTATION: G12D. In a few lines: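 AlphaScreen readout: signal falls as compound displaces biotinylated KRpep-2d analogue or RAF1-RBD from mutant KRAS. Both partners at 5-20 nM, 1 h binding at 25° C, then 10 μg/mL Anti-Flag acceptor and streptavidin donor beads for 1 h. IC50 by nonlinear regression of % inhibition.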
(In Alpha technology, singlet oxygen from a donor bead excites a nearby acceptor bead.)

For assay [2], the target named is T2, G12C-mutant human KRAS (amino acid residues 1-188) (Homo sapiens, UniProt P01116, G12C).
T2 construct: G12D or G12C-mutant human KRAS (amino acid residues 1-188) with FLAG tag; made in house; host or cells: E. coli
T2 sequence (P01116 1-188 isoform P01116-2 G12C): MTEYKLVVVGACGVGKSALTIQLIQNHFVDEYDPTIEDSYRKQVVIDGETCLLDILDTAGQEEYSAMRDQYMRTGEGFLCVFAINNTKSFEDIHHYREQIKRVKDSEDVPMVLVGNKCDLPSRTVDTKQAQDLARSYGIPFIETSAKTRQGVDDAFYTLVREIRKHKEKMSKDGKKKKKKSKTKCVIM
The experiment in a line: KRAS Binding Disruption Assay (AlphaScreen; biotinylated KRpep-2d analogue or RAF1-RBD), G12C. As to conditions: geometric mean, read-out: KRAS GMean IC50 (uM) MUTATION: G12C. The protocol: Compound binding disrupts the interaction of KRpep-2d or RAF1-RBD with KRAS, leading to a decrease in Alpha signal.
All assay components were prepared in 20 mM HEPES (pH 7.5), 100 mM NaCl, 5 mM MgCl2, 0.01% Tween-20, and 0.01% BSA. Biotinylated analogues of KRpep-2d were custom synthesized. The binding disruption assays were performed using 5-20 nM of mutant KRAS and 5-20 nM of either biotinylated KRpep-2d analogue or RAF1-RBD. 19 μL of KRAS protein and 4 μL of biotinylated KRpep-2d or RAF1-RBD were added to the wells of a 384-well plate containing 1 μL of various concentrations of test compound or DMSO vehicle. 16 wells containing KRAS, biotinylated KRpep-2d or RAF1-RBD, and 5% DMSO served as high controls. 16 wells containing KRAS only and 5% DMSO served as low controls. Binding reactions were incubated for 1 hour at 25° C., then Anti-Flag Acceptor and Streptavidin Donor Alpha beads were added at a final concentration of 10 μg/mL for an additional hour at room temperature. Alpha signal was read out on a Perkin Elmer Envision HTS instrument. The percentage inhibition at individual compound concentrations relative to high and low controls was calculated. The data were analyzed by using nonlinear regression to generate IC50 values.

T1 sequence (P01116 1-188 isoform P01116-2 G12D): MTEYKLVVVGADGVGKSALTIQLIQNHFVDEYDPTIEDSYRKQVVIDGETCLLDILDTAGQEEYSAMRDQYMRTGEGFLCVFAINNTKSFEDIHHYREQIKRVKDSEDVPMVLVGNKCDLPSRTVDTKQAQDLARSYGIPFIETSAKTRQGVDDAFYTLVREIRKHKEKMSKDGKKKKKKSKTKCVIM

With `CN(C)C1(CNc2nc(N3C[C@H]4CC[C@@H](C3)N4)c3ccc(-c4cc(O)cc5ccccc45)c(F)c3n2)CCOCC1` [P-0639, 4-(4-((1R,5S)-3,8-diazabicyclo[3.2.1]octan-3-yl)-2-(((4-(dimethylamino)tetrahydro-2H-pyran-4-yl)methyl)amino)-8-fluoroquinazolin-7-yl)naphthalen-2-ol], the IC50 in assay [1] was 0.0001 to 10 µM; in assay [2], 10 to 100 µM.
`CN(C)C1(C(N)=O)CN(c2nc(N3C[C@H]4CC[C@@H](C3)N4)c3ccc(-c4cc(O)cc5ccccc45)c(F)c3n2)C1` [P-0640, 1-(4-((1R,5S)-3,8-diazabicyclo[3.2.1]octan-3-yl)-8-fluoro-7-(3-hydroxynaphthalen-1-yl)quinazolin-2-yl)-3-(dimethylamino)azetidine-3-carboxamide]: the results for the IC50 in assay [1] and in assay [2] were 0.0001 to 10 µM and 10 to 100 µM, respectively.
The corresponding values for `CN1CCCC12CN(c1nc(N3C[C@H]4CC[C@@H](C3)N4)c3ccc(-c4cc(O)cc5ccccc45)c(F)c3n1)C2` [P-0641, 4-(4-((1R,5S)-3,8-diazabicyclo[3.2.1]octan-3-yl)-8-fluoro-2-(5-methyl-2,5-diazaspiro[3.4]octan-2-yl)quinazolin-7-yl)naphthalen-2-ol] are 0.0001 to 10 µM and 10 to 100 µM.
The corresponding values for `NC(=O)CCN1[C@@H]2CC[C@H]1CN(c1nc(OCC34CCCN3CCC4)nc3c(F)c(-c4cc(O)cc5ccccc45)ccc13)C2` [P-0642, 3-((1R,5S)-3-(8-fluoro-7-(3-hydroxynaphthalen-1-yl)-2-((tetrahydro-1H-pyrrolizin-7a(5H)-yl)methoxy)quinazolin-4-yl)-3,8-diazabicyclo[3.2.1]octan-8-yl)propanamide] are 0.0001 to 10 µM and 0.0001 to 10 µM.
The corresponding values for `CN1CC2(C1)CN(c1nc(N3C[C@H]4CC[C@@H](C3)N4)c3ccc(-c4cc(O)cc5ccccc45)c(F)c3n1)C2` [P-0643, 4-(4-((1R,5S)-3,8-diazabicyclo[3.2.1]octan-3-yl)-8-fluoro-2-(6-methyl-2,6-diazaspiro[3.3]heptan-2-yl)quinazolin-7-yl)naphthalen-2-ol] are 0.0001 to 10 µM and 10 to 100 µM.
As for `Fc1cc2c(N3C[C@H]4CC[C@@H](C3)N4)nc(OCC34CCCN3CCC4)nc2c(F)c1-c1c(Cl)cnc2[nH]ccc12` [P-0645, 4-((1R,5S)-3,8-diazabicyclo[3.2.1]octan-3-yl)-7-(5-chloro-1H-pyrrolo[2,3-b]pyridin-4-yl)-6,8-difluoro-2-((tetrahydro-1H-pyrrolizin-7a(5H)-yl)methoxy)quinazoline], the IC50 was 0.0001 to 10 µM in assay [1] and 10 to 100 µM in assay [2].
The like results for `Cc1ccc2[nH]cc(-c3ccc4c(N5C[C@H]6CC[C@@H](C5)N6)nc(OCC56CCCN5CCC6)nc4c3F)c2c1F` [P-0646, 4-((1R,5S)-3,8-diazabicyclo[3.2.1]octan-3-yl)-8-fluoro-7-(4-fluoro-5-methyl-1H-indol-3-yl)-2-((tetrahydro-1H-pyrrolizin-7a(5H)-yl)methoxy)quinazoline] were, in that order, 0.0001 to 10 µM and 0.0001 to 10 µM.
In the case of `CC(C)(COc1nc(N2C[C@H]3CC[C@@H](C2)N3)c2ccc(-c3cc(O)cc4ccccc34)c(F)c2n1)C(=O)O` [P-0647, 3-((4-((1R,5S)-3,8-diazabicyclo[3.2.1]octan-3-yl)-8-fluoro-7-(3-hydroxynaphthalen-1-yl)quinazolin-2-yl)oxy)-2,2-dimethylpropanoic acid], the IC50 in assay [1] lay in the range of 0.0001 to 10 µM; in assay [2], 10 to 100 µM.
The like results for `COC(=O)C(C)(C)COc1nc(N2C[C@H]3CC[C@@H](C2)N3)c2ccc(-c3cc(O)cc4ccccc34)c(F)c2n1` [P-0648, methyl 3-((4-((1R,5S)-3,8-diazabicyclo[3.2.1]octan-3-yl)-8-fluoro-7-(3-hydroxynaphthalen-1-yl)quinazolin-2-yl)oxy)-2,2-dimethylpropanoate] were, in that order, 0.0001 to 10 µM and 10 to 100 µM.
The like results for `Oc1cc(-c2ccc3c(N4C[C@H]5CC[C@@H](C4)N5)nc(OCCN4CCC(F)(F)C4)nc3c2F)c2ccccc2c1` [P-0649, 4-(4-((1R,5S)-3,8-diazabicyclo[3.2.1]octan-3-yl)-2-(2-(3,3-difluoropyrrolidin-1-yl)ethoxy)-8-fluoroquinazolin-7-yl)naphthalen-2-ol] were, in that order, 0.0001 to 10 µM and 0.0001 to 10 µM.
Consider `Oc1cc(-c2ccc3c(N4C[C@H]5CC[C@@H](C4)N5)nc(OCC4CC(O)C4)nc3c2F)c2ccccc2c1` (stereo partly drawn) [P-0650, 4-(4-((1R,5S)-3,8-diazabicyclo[3.2.1]octan-3-yl)-8-fluoro-2-((3-hydroxycyclobutyl)methoxy)quinazolin-7-yl)naphthalen-2-ol], for which the IC50 in assay [1] and in assay [2] was 0.0001 to 10 µM in each case.
Take `OCC1(COc2nc(N3C[C@H]4CC[C@@H](C3)N4)c3ccc(-c4cc(O)cc5ccccc45)c(F)c3n2)CCC1` [P-0651, 4-(4-((1R,5S)-3,8-diazabicyclo[3.2.1]octan-3-yl)-8-fluoro-2-((1-(hydroxymethyl)cyclobutyl)methoxy)quinazolin-7-yl)naphthalen-2-ol]: the half-maximal inhibitory concentration (IC50) in assay [1] and in assay [2] was 0.0001 to 10 µM throughout.
`OCCCOc1nc(N2C[C@H]3CC[C@@H](C2)N3)c2ccc(-c3cc(O)cc4ccccc34)c(F)c2n1` [P-0652, 4-(4-((1R,5S)-3,8-diazabicyclo[3.2.1]octan-3-yl)-8-fluoro-2-(3-hydroxypropoxy)quinazolin-7-yl)naphthalen-2-ol]: the results for the concentration for half-maximal inhibition (IC50) in assay [1] and in assay [2] were 0.0001 to 10 µM and 10 to 100 µM, respectively.
The corresponding values for `Fc1c(-c2c[nH]c3cccc(CC4CC4)c23)ccc2c(N3C[C@H]4CC[C@@H](C3)N4)nc(OCC34CCCN3CCC4)nc12` [P-0653, 4-((1R,5S)-3,8-diazabicyclo[3.2.1]octan-3-yl)-7-(4-(cyclopropylmethyl)-1H-indol-3-yl)-8-fluoro-2-((tetrahydro-1H-pyrrolizin-7a(5H)-yl)methoxy)quinazoline] are 0.0001 to 10 µM and 0.0001 to 10 µM.
The like results for `CN1CCC[C@H]1COc1nc(N2C[C@H]3CC[C@@H](C2)N3)c2ccc(-c3c[nH]c4cccc(Cl)c34)c(F)c2n1` [P-0654, 4-((1R,5S)-3,8-diazabicyclo[3.2.1]octan-3-yl)-7-(4-chloro-1H-indol-3-yl)-8-fluoro-2-(((S)-1-methylpyrrolidin-2-yl)methoxy)quinazoline] were, in that order, 0.0001 to 10 µM and 10 to 100 µM.
The corresponding values for `O=C(CCO)Nc1nc(N2C[C@H]3CC[C@@H](C2)N3)c2ccc(-c3cc(O)cc4ccccc34)c(F)c2n1` [P-0655, N-(4-((1R,5S)-3,8-diazabicyclo[3.2.1]octan-3-yl)-8-fluoro-7-(3-hydroxynaphthalen-1-yl)quinazolin-2-yl)-3-hydroxypropanamide] are 0.0001 to 10 µM and 100 to 1000 µM.
As to `CC(C)(O)CCOc1nc(N2C[C@H]3CC[C@@H](C2)N3)c2ccc(-c3cc(O)cc4ccccc34)c(F)c2n1` [P-0656, 4-(4-((1R,5S)-3,8-diazabicyclo[3.2.1]octan-3-yl)-8-fluoro-2-(3-hydroxy-3-methylbutoxy)quinazolin-7-yl)naphthalen-2-ol], the IC50 in assay [1] lay in the range of 0.0001 to 10 µM; in assay [2], 10 to 100 µM.
The like results for `COC1CN(c2nc(N3C[C@H]4CC[C@@H](C3)N4)c3ccc(-c4cc(O)cc5ccccc45)c(F)c3n2)C1` [P-0658, 4-(4-((1R,5S)-3,8-diazabicyclo[3.2.1]octan-3-yl)-8-fluoro-2-(3-methoxyazetidin-1-yl)quinazolin-7-yl)naphthalen-2-ol] were, in that order, 0.0001 to 10 µM and 100 to 1000 µM.
